Columns and labels:
[1] = tested on: IL-4; test: Measurement of IL-4 Levels in Human T Cells (IL-4 Assay); type: cell-based; conditions: HuT78; Human T cells (HUT 78), phorbol 12-myristate 13-acetate and anti-CD3, 32 hours, ELISA; read-out: IL-4 Inhibition IC50
Method: (§1) Measurement of IL-5 and IL-4 Levels in Human T Cells (IL-4 and IL-5 Assays) Human T cells (HUT 78) were cultured to 1×10^6/mL in RPMI 1640 medium containing 10% fetal calf serum, 100 U/mL penicillin and 100 μg/mL streptomycin. Cultures were then centrifuged, to pellet the cells, and cells resuspended in fresh medium to the same density. 0.2 mL samples of cells were incubated in 96-well plates with 8 μL of various concentrations of compound freshly diluted with the above medium from 100 mM solvent stocks (ethanol or DMSO). Immediately after addition of compound, cells were stimulated by addition of 2 ng/mL phorbol 12-myristate 13-acetate (1 μL of freshly prepared solution of stock (in DMSO) diluted with the above medium added to cells) and 750 μg/mL anti-CD3 (pre-coated at 4° C. overnight). Cell cultures were incubated at 37 OC for 32 hours, then cells pelleted by centrifugation and the supernatants harvested for ELISA. IL-4 and IL-5 ELISA's were performed according to standard procedures. Inhibition was calculated relative to cytokine levels produced from control stimulated cells not treated with compound.

[2] = tested on: Human peripheral blood mononuclear cells; test: Human Concanavalin-A Proliferation Assay (Con HU Assay); type: cell-based; conditions: Homo sapiens, PBMC, concanavalin-A stimulated human PBMC
Outline: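 Histopaque-isolated human PBMC (50,000/well) were pre-incubated 15 min with compounds, then stimulated with concanavalin-A at 2.5 μg/ml final for 3 days at 37 °C, 5% CO2. Proliferation measured by 6 h pulse with 0.5 μCi/well [3H]thymidine and beta counting.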

[3] = tested on: IL-2; test: CD3 and CD28 Activation of Peripheral Blood T Cells and Determination of Secreted IL-2 Levels (C28 HU Assay); type: cell-based, Human; conditions: Homo sapiens, PBMC stimulated with anti-CD3 and anti CD28 mAbs, 24 hour
Method: Human peripheral blood mononuclear cells were cultured in RPMI 1640 medium supplemented with 10 μg/ml gentamicin, 50 μM 2-mercaptoethanol, 1X MEM non-essential amino acids (Sigma Chemical Co., St. Louis, Mo.), 100 U/ml sodium penicillin G, 100 μg/ml streptomycin sulfate, 2 mM L-glutamine, 1 mM sodium pyruvate (Life Technologies, Grand Island, N.Y.) and 10% fetal bovine serum (Hyclone, Logan, Utah) at 37° C. with 5% CO2.
Human peripheral blood mononuclear cells (PBMC) were isolated by Ficoll-Hypaque seperation. PBMCs were stimulated with a combination of immobilized anti-CD3 and soluble anti CD28 mAbs as described in Faltynek, et al. J. Enzyme Inhibition 1995, 9, 111-122, hereby incorporated by reference. Following a 24 hour incubation, cell supernatants were harvested and IL-2 levels were determined. 100 μl of 5 μg/ml monoclonal murine anti-human IL-2 antibody (Biosource International) in D-PBS was added to 96 well Maxisorb plates (Nunc) and incubated at 4° C. overnight. Plates were washed 4 times with D-PBS containing 0.05% Tween 20 (wash buffer) and blocked with D-PBS containing 1% BSA and 10 mM NaN3 (Diluent/Blocking buffer) for 1-3 hours at room temperature or overnight at 4° C. Plates were washed and recombinant human IL-2 diluted (at 10,000, 5,000, 2,500, 1,250, 625, 312.5, 156.25, 78, 39, 20 pg/ml) in diluent/blocking buffer containing a matched percentage of complete RPMI 1640 medium as the unknown samples. Tissue culture supernatant at various dilutions were added in triplicate at 100 μl/well. Plates were incubated for 2 hours at room temperature and washed 4 times with wash buffer. 100 pl of rabbit anti-human IL-2 (10 μg/ml, Genzyme) was added and incubated for 1 hour at room temperature. The incubation was followed by 4 washes and subsequent addition of 100 pl of 1:2000 dilution of alkaline phosphatase-conjugated goat anti-rabbit F(ab′)2 (Biosource International). After 1 hour the plates were washed 4 times and 100 μl of pNPP (Southern Biotech or Sigma) at 1 mg/ml in buffer was added. Color development was allowed to proceed at room temperature for 20 minutes before addition of 50 μl of 2 N NaOH. Absorbance at 405 nm was determined using a plate reader (Molecular Devices). IL-2 concentrations were calcualted using SoftMax (Molecular Devices) based on the IL-2 standard solutions.

[4] = tested on: IL-5; test: Measurement of IL-5 Levels in Human T Cells (IL-5 Assay); type: cell-based; conditions: HuT78; Human T cells (HUT 78), phorbol 12-myristate 13-acetate and anti-CD3, 32 hours, ELISA; read-out: IL-5 Inhibition IC50
Method: as §1

- IC50 [1]: 110 nM
- melting point: 179 to 180 °C
- IC50 ([3]; IL-2 secretion): 314 nM
- IC50 [4]: 150 nM
SMILES: Cc1noc(C)c1C(=O)Nc1ccc(-n2nc(C(F)(F)F)cc2C(F)(F)F)cc1 [Example 266, N-[4-[3,5-bis(trifluoromethyl)-1H-pyrazol-1-yl]phenyl]-3,5-dimethyl-4-isoxazolecarboxamide]
- inhibition at 100 µM ([2]; 72 h, concentration 100 μm (in parentheses in the cell), 3 days, read-out: % Inhibition of proliferation (at concentrations of 1,10, or 100 μm)): 100%
- IC50 ([2]; tritiated thymidine): 322 nM
- inhibition at 100 µM ([3]; concentration 100 μM (in c2), read-out: % Inhibition of IL-2 secretion (At concentrations of 1, 10, or 100 μM)): 88%

Source: US20010044445A1, “AZOLE INHIBITORS OF CYTOKINE PRODUCTION” (priority 1999, published 2001)
